According to patent US8735414B2 (priority 2009, dated 2014):

Test system: not given
Assay: not given
Conditions: not given
Work on `CC(C)NS(=O)(=O)c1ccc(-c2c(C#N)c3cc(F)ccc3n2C2CCC2)nc1` [compound 5, 6-(3-cyano-1-cyclobutyl-5-fluoro-1H-indol-2-yl)-N-(propan-2-yl)pyridine-3-sulfonamide] yielded a melting point of 203 to 205 °C. In the case of `N#Cc1c(-c2ccc(S(=O)(=O)NC3(C(F)(F)F)CC3)cn2)n(C2CCC2)c2cc(C3CC3)ccc12` [compound 153, 6-(3-cyano-1-cyclobutyl-6-cyclopropyl-1H-indol-2-yl)-N-[1-(trifluoromethyl)cyclopropyl]pyridine-3-sulfonamide], the melting point is reported as 166 to 171 °C. With `CC(C)NS(=O)(=O)c1ccc(-c2c(C#N)c3ccc(OC(F)F)cc3n2C2CCCC2)nc1` [compound 52, 6-[3-cyano-1-cyclopentyl-6-(difluoromethoxy)-1H-indol-2-yl]-N-(propan-2-yl)pyridine-3-sulfonamide] the melting point was 157 to 158 °C. Compound `CC(C#N)NS(=O)(=O)c1ccc(-c2c(C#N)c3ccc(OC(F)F)cc3n2C2CCC2)nc1` (centres unmarked) [compound 301, 6-[3-cyano-1-cyclobutyl-6-(difluoromethoxy)-1H-indol-2-yl]-N-(1-cyanoethyl)pyridine-3-sulfonamide] has a melting point of 188 to 190 °C. In the case of `CC(C)NS(=O)(=O)c1ccc(-c2c(C#N)c3ccc(OC(F)F)cc3n2C2CCCCC2)nc1` [compound 99, 6-[3-cyano-1-cyclohexyl-6-(difluoromethoxy)-1H-indol-2-yl]-N-(propan-2-yl)pyridine-3-sulfonamide], the melting point is reported as 187 to 190 °C. Work on `CC(C)NS(=O)(=O)c1ccc(-c2c(C#N)c3ccc(OCC(F)F)cc3n2C2CCC2)nc1` [compound 59, 6-[3-cyano-1-cyclobutyl-6-(2,2-difluoroethoxy)-1H-indol-2-yl]-N-(propan-2-yl)pyridine-3-sulfonamide] yielded a melting point of 171 to 173 °C. Compound `CC(NS(=O)(=O)c1ccc(-c2c(C#N)c3ccc(OC(F)F)cc3n2C2CCC2)nc1)C(F)(F)F` (centres unmarked) [compound 78, 6-[3-cyano-1-cyclobutyl-6-(difluoromethoxy)-1H-indol-2-yl]-N-(1,1,1-trifluoropropan-2-yl)pyridine-3-sulfonamide] has a melting point of 159 to 165 °C. Compound `CC(C)NS(=O)(=O)c1cnc(-c2c(C#N)c3ccc(OC(F)F)cc3n2CC2CC2)nc1` [compound 170, 2-[3-cyano-1-(cyclopropylmethyl)-6-(difluoromethoxy)-1H-indol-2-yl]-N-(propan-2-yl)pyrimidine-5-sulfonamide] has a melting point of 182 to 184 °C. In the case of `CC(C)(CF)NS(=O)(=O)c1ccc(-c2c(C#N)c3ccc(OC(F)F)cc3n2C2CCC2)nc1` [compound 77, 6-[3-cyano-1-cyclobutyl-6-(difluoromethoxy)-1H-indol-2-yl]-N-(1-fluoro-2-methylpropan-2-yl)pyridine-3-sulfonamide], the melting point is reported as 171 to 178 °C. With `N#Cc1c(-c2ccc(S(=O)(=O)NC3(C(F)(F)F)CC3)cn2)n(C2CCC2)c2cc(OC(F)F)ccc12` [compound 93, 6-[3-cyano-1-cyclobutyl-6-(difluoromethoxy)-1H-indol-2-yl]-N-[1-(trifluoromethyl)cyclopropyl]pyridine-3-sulfonamide] the melting point was 182 to 187 °C. `CC(C)NS(=O)(=O)c1ccc(-c2c(C#N)c3ccc(C4CCC4)cc3n2C2CCC2)nc1` [compound 266, 6-(3-cyano-1,6-dicyclobutyl-1H-indol-2-yl)-N-(propan-2-yl)pyridine-3-sulfonamide] gave a melting point of 178 to 180 °C. `N#Cc1c(-c2ccc(S(=O)(=O)NC(CO)CO)cn2)n(C2CCC2)c2cc(OC(F)F)ccc12` [compound 239, 6-[3-cyano-1-cyclobutyl-6-(difluoromethoxy)-1H-indol-2-yl]-N-(1,3-dihydroxypropan-2-yl)pyridine-3-sulfonamide] showed a melting point of 132 to 135 °C. `CC(C)NS(=O)(=O)c1ccc(-c2c(C#N)c3ccc(C(F)F)cc3n2C2CCC2)nc1` [compound 333, 6-[3-cyano-1-cyclobutyl-6-(difluoromethyl)-1H-indol-2-yl]-N-(propan-2-yl)pyridine-3-sulfonamide] gave a melting point of 212 to 220 °C. Compound `CC(C)NS(=O)(=O)c1ccc(-c2c(C#N)c3cc(OC(F)(F)F)ccc3n2C2CCC2)nc1` [compound 23, 6-[3-cyano-1-cyclobutyl-5-(trifluoromethoxy)-1H-indol-2-yl]-N-(propan-2-yl)pyridine-3-sulfonamide] has a melting point of 174 to 176 °C. Work on `C[C@@H](NS(=O)(=O)c1ccc(-c2c(C#N)c3ccc(OC(F)F)cc3n2C2CCC2)nc1)C(F)(F)F` [compound 196, 6-[3-cyano-1-cyclobutyl-6-(difluoromethoxy)-1H-indol-2-yl]-N-[(2R)-1,1,1-trifluoropropan-2-yl]pyridine-3-sulfonamide] yielded a melting point of 159 to 164 °C. Compound `C[C@@H](NS(=O)(=O)c1ccc(-c2c(C#N)c3ccc(C4CC4)cc3n2C2CCC2)nc1)C(F)(F)F` [compound 212, 6-(3-cyano-1-cyclobutyl-6-cyclopropyl-1H-indol-2-yl)-N-[(2R)-1,1,1-trifluoropropan-2-yl]pyridine-3-sulfonamide] has a melting point of 192 to 196 °C. In the case of `CC(C)NS(=O)(=O)c1ccc(-c2c(C#N)c3ccc(OC(F)F)cc3n2CC2CC2)cn1` [compound 40, 5-[3-cyano-1-(cyclopropylmethyl)-6-(difluoromethoxy)-1H-indol-2-yl]-N-(propan-2-yl)pyridine-2-sulfonamide], the melting point is reported as 186 to 188 °C. `CC(C)(NS(=O)(=O)c1ccc(-c2c(C#N)c3ccc(OC(F)F)cc3n2C2CCC2)nc1)C(F)(F)F` [compound 479, 6-[3-cyano-1-cyclobutyl-6-(difluoromethoxy)-1H-indol-2-yl]-N-(1,1,1-trifluoro-2-methylpropan-2-yl)pyridine-3-sulfonamide] showed a melting point of 165 to 171 °C. Compound `CC(C)NS(=O)(=O)c1ccc(-c2c(C#N)c3cc(OC(F)F)ccc3n2C2CCC2)nc1` [compound 19, 6-[3-cyano-1-cyclobutyl-5-(difluoromethoxy)-1H-indol-2-yl]-N-(propan-2-yl)pyridine-3-sulfonamide] has a melting point of 148 to 153 °C. `CC(C)NS(=O)(=O)c1ccc(-c2c(C#N)c3ccc(OC(F)(F)F)cc3n2C2CCC2)nc1` [compound 10, 6-[3-cyano-1-cyclobutyl-6-(trifluoromethoxy)-1H-indol-2-yl]-N-(propan-2-yl)pyridine-3-sulfonamide] gave a melting point of 191 to 193 °C. Compound `CC(C)NS(=O)(=O)c1ccc(-c2c(C#N)c3ccc(C4CC4)cc3n2C2CCC2)nc1` [compound 7, 6-(3-cyano-1-cyclobutyl-6-cyclopropyl-1H-indol-2-yl)-N-(propan-2-yl)pyridine-3-sulfonamide] has a melting point of 174 to 176 °C.

Test system: bicistronic HCV replicon (replicon RNA, GenBank Accession No. AJ242654)
Assay: HCV Replicon Assay
Format: cell-based
Conditions: Hepatitis C virus, 72 h, read-out: Replicon IC50
In the case of `Cc1c(F)c(OC(F)F)cc2c1c(C#N)c(-c1ccc(S(=O)(=O)N[C@@H](C)C(F)(F)F)cn1)n2C1CCC1` [compound 810, 6-[3-cyano-1-cyclobutyl-6-(difluoromethoxy)-5-fluoro-4-methyl-1H-indol-2-yl]-N-[(2S)-1,1,1-trifluoropropan-2-yl]pyridine-3-sulfonamide], the IC50 is reported as < 500 nM. In the case of `CCc1cc2c(cc1F)c(C#N)c(-c1ccc(S(=O)(=O)N[C@H](C)C(F)(F)F)cn1)n2-c1ncccn1` [compound 878, 6-[3-cyano-6-ethyl-5-fluoro-1-(pyrimidin-2-yl)-1H-indol-2-yl]-N-[(2R)-1,1,1-trifluoropropan-2-yl]pyridine-3-sulfonamide], the IC50 is reported as < 500 nM. `N#Cc1c(-c2ccc(S(=O)(=O)NC(CF)CF)cn2)n(C2CCC2)c2cc(C3CCC3)ccc12` [compound 342, 6-(3-cyano-1,6-dicyclobutyl-1H-indol-2-yl)-N-(1,3-difluoropropan-2-yl)pyridine-3-sulfonamide] showed an IC50 of 500 to 2000 nM. With `CC(C)n1c(-c2ncc(S(=O)(=O)N[C@@H](C)C(F)(F)F)cn2)c(C#N)c2cc(Cl)ccc21` [compound 420, 2-[5-chloro-3-cyano-1-(propan-2-yl)-1H-indol-2-yl]-N-[(2S)-1,1,1-trifluoropropan-2-yl]pyrimidine-5-sulfonamide] the IC50 was 500 to 2000 nM. In the case of `CCc1cc2c(cc1F)c(C#N)c(-c1ccc(S(=O)(=O)NC3(C(F)(F)F)CC3)cn1)n2-c1ncccn1` [compound 864, 6-[3-cyano-6-ethyl-5-fluoro-1-(pyrimidin-2-yl)-1H-indol-2-yl]-N-[1-(trifluoromethyl)cyclopropyl]pyridine-3-sulfonamide], the IC50 is reported as < 500 nM. In the case of `N#Cc1c(-c2ccc(S(=O)(=O)NC(CF)CF)cn2)n(CC2CC2)c2cc(C3CC3)ccc12` [compound 84, 6-[3-cyano-6-cyclopropyl-1-(cyclopropylmethyl)-1H-indol-2-yl]-N-(1,3-difluoropropan-2-yl)pyridine-3-sulfonamide], the IC50 is reported as < 500 nM. For `[2H]C([2H])([2H])c1cc2c(cc1F)c(C#N)c(-c1ccc(S(=O)(=O)N[C@@]([2H])(C)C(F)(F)F)cn1)n2-c1ncccn1` [compound 1107, 6-[3-cyano-5-fluoro-6-(1,1,1-trideuterium)methyl-1-(pyrimidin-2-yl)-1H-indol-2-yl]-N-[(2S)-1,1,1-trifluoro(2-deuterium)propan-2-yl]pyridine-3-sulfonamide], the IC50 was < 500 nM. With `Cc1ccc2c(C#N)c(-c3ccc(S(=O)(=O)N[C@@H](C)C(F)(F)F)cn3)n(-c3ccccc3)c2c1` [compound 440, 6-(3-cyano-6-methyl-1-phenyl-1H-indol-2-yl)-N-[(2S)-1,1,1-trifluoropropan-2-yl]pyridine-3-sulfonamide] the IC50 was < 500 nM. With `CCc1cc2c(cc1F)c(C#N)c(-c1ccc(S(=O)(=O)NC(C)(C)C(F)(F)F)cn1)n2-c1ncccn1` [compound 859, 6-[3-cyano-6-ethyl-5-fluoro-1-(pyrimidin-2-yl)-1H-indol-2-yl]-N-(1,1,1-trifluoro-2-methylpropan-2-yl)pyridine-3-sulfonamide] the IC50 was 500 to 2000 nM. `N#Cc1c(-c2ccc(S(N)(=O)=O)cn2)n(C2CCC2)c2cc(C3CC3)ccc12` [compound 90, 6-(3-cyano-1-cyclobutyl-6-cyclopropyl-1H-indol-2-yl)pyridine-3-sulfonamide] showed an IC50 of 2000 to 5000 nM. For `COC(=O)c1csc(-n2c(-c3ccc(S(=O)(=O)N[C@@H](C)C(F)(F)F)cn3)c(C#N)c3cc(F)c(C)cc32)n1` [compound 986, methyl 2-[3-cyano-5-fluoro-6-methyl-2-(5-{[(2S)-1,1,1-trifluoropropan-2-yl]sulfamoyl}pyridin-2-yl)-1H-indol-1-yl]-1,3-thiazole-4-carboxylate], the IC50 was < 500 nM.
